Measurements taken from patent US10392368B2, “Pyrazolo and triazolo bicyclic compounds as JAK kinase inhibitors” (THERAVANCE BIOPHARMA R&D IP, LLC, priority 2017, dated 2019).

What was measured:
[1] = target: T1, JAK1 (Homo sapiens, UniProt P23458); test: Biochemical JAK1 kinase assay (LanthaScreen); settings: for Ki: read-out: JAK 1 (pKi) (converted)
T1 construct: GST; purchased Life Technologies
Method in brief: (§1)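 TR-FRET readout (520/495 nm) using Tb-labelled pTyr701 antibody after EDTA stop, following 1 h ATP-started phosphorylation of GFP-STAT1 by recombinant GST-JAK. Compounds preincubated 1 h with enzyme and substrate; pIC50 from 4-parameter fit, Cheng-Prusoff gives pKi.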

[2] = target: T2, JAK3 (Homo sapiens, UniProt P52333); test: Biochemical JAK3 kinase assay (LanthaScreen); parameters: GST; purchased Life Technologies; settings: for JAK3 (pKi)-JAK1 (pKi): selectivity JAK3 over JAK1, difference of pKi; for Ki: read-out: JAK 3 (pKi) (converted)
T2 sequence (P52333 1-1124): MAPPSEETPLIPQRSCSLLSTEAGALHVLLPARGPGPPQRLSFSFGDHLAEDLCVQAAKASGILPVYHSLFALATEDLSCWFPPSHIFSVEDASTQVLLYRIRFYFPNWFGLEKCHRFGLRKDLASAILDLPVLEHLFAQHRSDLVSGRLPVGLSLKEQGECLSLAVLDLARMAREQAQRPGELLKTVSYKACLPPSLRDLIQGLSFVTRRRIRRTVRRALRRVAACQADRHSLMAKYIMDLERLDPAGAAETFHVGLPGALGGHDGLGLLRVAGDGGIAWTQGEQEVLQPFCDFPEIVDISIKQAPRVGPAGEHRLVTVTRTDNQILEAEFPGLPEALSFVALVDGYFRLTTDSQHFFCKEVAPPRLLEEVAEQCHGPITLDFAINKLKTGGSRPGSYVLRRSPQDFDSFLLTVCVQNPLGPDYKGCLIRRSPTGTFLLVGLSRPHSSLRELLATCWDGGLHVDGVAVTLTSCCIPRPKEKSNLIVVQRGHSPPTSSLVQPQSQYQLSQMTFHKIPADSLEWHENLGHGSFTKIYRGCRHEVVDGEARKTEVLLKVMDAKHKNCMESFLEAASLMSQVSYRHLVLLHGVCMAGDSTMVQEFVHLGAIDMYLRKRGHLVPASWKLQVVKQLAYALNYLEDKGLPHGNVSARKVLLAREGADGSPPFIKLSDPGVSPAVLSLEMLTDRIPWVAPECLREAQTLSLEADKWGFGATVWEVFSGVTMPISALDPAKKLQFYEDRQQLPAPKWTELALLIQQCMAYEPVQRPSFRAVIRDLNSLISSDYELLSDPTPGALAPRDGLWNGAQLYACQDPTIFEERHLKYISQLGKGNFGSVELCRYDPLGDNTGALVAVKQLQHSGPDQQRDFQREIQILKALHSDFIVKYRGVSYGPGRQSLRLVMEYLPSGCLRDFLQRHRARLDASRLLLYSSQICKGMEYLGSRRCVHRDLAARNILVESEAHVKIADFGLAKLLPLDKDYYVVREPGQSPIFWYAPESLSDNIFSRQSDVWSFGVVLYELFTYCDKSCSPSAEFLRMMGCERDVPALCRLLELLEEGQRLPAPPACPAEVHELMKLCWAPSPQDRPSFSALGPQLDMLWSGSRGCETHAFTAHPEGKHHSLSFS
Method in brief: as §1

[3] = tested on: IL-2 stimulated pSTAT5 in Tall-1 T cells; test: Cellular JAK3 potency assay: inhibition of IL-2 stimulated pSTAT5 in Tall-1 T cells; format: cell-based, human; settings: for Tall-1 (pIC50): IL-2 stimulated pSTAT5, Tall-1 T cells; for IC50: Homo sapiens, TALL-1, IL-2 stimulated pSTAT5, Tall-1 T cells, read-out: Tall-1 (pIC50) (converted)
Method in brief: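 Tall-1 human T cells (45,000/well) in phenol red-free DMEM with 10% FBS were preincubated with compound 1 h at 37 °C, then stimulated with IL-2 (final 300 ng/ml) for 30 min. Lysate pSTAT5 read by AlphaLisa; IC50 from inhibition curves, reported as pIC50 (mean±SD).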

T1 sequence (P23458 whole entry): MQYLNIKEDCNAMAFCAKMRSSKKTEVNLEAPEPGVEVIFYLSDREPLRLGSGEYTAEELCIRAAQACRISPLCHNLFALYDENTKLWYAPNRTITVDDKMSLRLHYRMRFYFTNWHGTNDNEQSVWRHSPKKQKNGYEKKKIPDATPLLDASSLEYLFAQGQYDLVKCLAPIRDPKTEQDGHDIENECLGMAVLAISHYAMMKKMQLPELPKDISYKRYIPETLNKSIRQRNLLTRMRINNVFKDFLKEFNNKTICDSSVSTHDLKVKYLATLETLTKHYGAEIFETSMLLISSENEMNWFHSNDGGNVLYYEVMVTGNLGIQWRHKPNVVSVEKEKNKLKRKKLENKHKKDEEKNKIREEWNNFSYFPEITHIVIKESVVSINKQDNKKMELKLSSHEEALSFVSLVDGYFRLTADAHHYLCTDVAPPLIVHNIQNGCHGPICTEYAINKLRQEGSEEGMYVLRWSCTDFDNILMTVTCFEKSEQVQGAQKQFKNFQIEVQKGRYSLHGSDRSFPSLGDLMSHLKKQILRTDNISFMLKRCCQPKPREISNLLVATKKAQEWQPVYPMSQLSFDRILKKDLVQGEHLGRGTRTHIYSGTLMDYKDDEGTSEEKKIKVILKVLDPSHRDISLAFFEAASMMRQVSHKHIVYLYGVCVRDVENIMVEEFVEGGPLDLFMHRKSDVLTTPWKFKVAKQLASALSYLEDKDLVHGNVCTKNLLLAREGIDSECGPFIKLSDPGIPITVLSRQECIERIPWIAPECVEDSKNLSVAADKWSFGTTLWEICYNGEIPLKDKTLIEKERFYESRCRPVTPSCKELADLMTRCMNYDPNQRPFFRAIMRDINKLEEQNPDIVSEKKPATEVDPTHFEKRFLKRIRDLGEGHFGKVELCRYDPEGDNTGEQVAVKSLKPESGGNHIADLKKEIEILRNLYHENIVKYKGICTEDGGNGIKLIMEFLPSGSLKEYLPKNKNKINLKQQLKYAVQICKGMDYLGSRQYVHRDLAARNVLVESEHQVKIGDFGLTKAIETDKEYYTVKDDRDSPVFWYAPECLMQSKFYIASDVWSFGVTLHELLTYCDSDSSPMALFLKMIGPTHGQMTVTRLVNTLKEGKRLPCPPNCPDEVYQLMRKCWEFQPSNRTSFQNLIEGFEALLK

| Structure (SMILES) | JAK 1 (pKi) [1] | JAK 3 (pKi) [2] | JAK3 (pKi)-JAK1 (pKi) [2] | Tall-1 (pIC50) [3] | Ki [1] [nM] | Ki [2] [nM] | IC50 [3] [nM] |
| --- | --- | --- | --- | --- | --- | --- | --- |
| C=CC(=O)N1CC(Oc2nc(-c3ccc(O)cc3)nc3[nH]ncc23)C1 [Compound 5-20] | E (a pKi value of 7 or below (Ki of 100 nM or above)) | B (a pKi value between 9 and 10 (Ki between 1 nM and 0.1 nM)) | A (a value of 3 or above) | C (a pIC50 value between 6 and 6.7 (IC50 between 1 μM and 200 nM)) |  |  |  |
| C=CC(=O)N1CC(C)(Oc2cc(-c3ccc(O)c(F)c3)cc3[nH]ncc23)C1 [Compound 5-24] | E (a pKi value of 7 or below (Ki of 100 nM or above)) | B (a pKi value between 9 and 10 (Ki between 1 nM and 0.1 nM)) | A (a value of 3 or above) | B (a pIC50 value between 6.7 (included) and 7.5 (IC50 between 200 nM and 32 nM)) |  |  |  |
| CN(C)C/C=C/C(=O)N1CC(Oc2cc(-c3ccc(O)cc3)cc3[nH]ncc23)(C(F)(F)F)C1 [Compound 5-25] | E (a pKi value of 7 or below (Ki of 100 nM or above)) | B (a pKi value between 9 and 10 (Ki between 1 nM and 0.1 nM)) | A (a value of 3 or above) | A (a pIC50 value≥7.5 (IC50≤32 nM)) |  |  |  |
| C=CC(=O)N1CC(Oc2cc(-c3ccc(O)cc3)cc3[nH]ncc23)(C(F)(F)F)C1 [Compound 5-26] | E (a pKi value of 7 or below (Ki of 100 nM or above)) | B (a pKi value between 9 and 10 (Ki between 1 nM and 0.1 nM)) | B (a value of 2.3 to 3) | C (a pIC50 value between 6 and 6.7 (IC50 between 1 μM and 200 nM)) |  |  |  |
| CN(C)C/C=C/C(=O)N1CCC(Oc2cc(-c3ccc(O)cc3)cc3[nH]ncc23)CC1 [Compound 6-1] |  |  | B (a value of 2.3 to 3) |  | 10 to 100 | < 0.1 | 31.6 to 200 |
| C=CC(=O)N1CCC(C)(Oc2cc(-c3ccc(O)c(Cl)c3)cc3[nH]ncc23)CC1 [Compound 6-5] | E (a pKi value of 7 or below (Ki of 100 nM or above)) | B (a pKi value between 9 and 10 (Ki between 1 nM and 0.1 nM)) | A (a value of 3 or above) | A (a pIC50 value≥7.5 (IC50≤32 nM)) |  |  |  |
| C=CC(=O)N1CCC(C)(Oc2cc(-c3ccc(O)c(F)c3)cc3[nH]ncc23)CC1 [Compound 6-7] |  |  | A (a value of 3 or above) |  | > 100 | 0.1 to 1 | < 31.6 |
| C=CC(=O)N1CCC(Oc2cc(-c3ccc(O)cc3)cc3[nH]ncc23)C(F)(F)C1 (centres unmarked) [Compound 6-8] |  |  | B (a value of 2.3 to 3) |  | 10 to 100 | < 0.1 | < 31.6 |
| C=CC(=O)N1CCC(Oc2cc(-c3ccc(O)cc3)nc3[nH]ncc23)CC1 [Compound 6-11] |  |  | A (a value of 3 or above) |  | > 100 | < 0.1 | 31.6 to 200 |
| C=CC(=O)N1CCC(Oc2nc(-c3ccc(O)cc3)nc3[nH]ncc23)CC1 [Compound 6-12] |  |  | A (a value of 3 or above) |  | > 100 | 0.1 to 1 | 31.6 to 200 |
| C=CC(=O)N1CCC(Oc2cc(-c3ccc(O)c(F)c3)cc3[nH]ncc23)CC1 [Compound 6-14] |  |  | B (a value of 2.3 to 3) |  | 10 to 100 | < 0.1 | < 31.6 |
| CN(C)C/C=C/C(=O)N1CCC(Oc2cc(-c3ccc(O)c(Cl)c3)cc3[nH]ncc23)CC1 [Compound 6-19] |  |  | B (a value of 2.3 to 3) |  | 10 to 100 | 0.1 to 1 | 31.6 to 200 |
| C=CC(=O)N1CCC(Oc2nc(-c3ccc(O)c(Cl)c3)nc3[nH]ncc23)CC1 [Compound 6-22] |  |  | A (a value of 3 or above) |  | > 100 | 0.1 to 1 | 200 to 1000 |
| C=CC(=O)N1CCC(Oc2nc(-c3ccc(O)c(F)c3)nc3[nH]ncc23)CC1 [Compound 6-23] |  |  | A (a value of 3 or above) |  | > 100 | 0.1 to 1 | 200 to 1000 |
| CN(C)C/C=C/C(=O)N1CCC(C)(Nc2cc(-c3ccc(O)cc3)cc3[nH]ncc23)CC1 [Compound 7-1] | E (a pKi value of 7 or below (Ki of 100 nM or above)) | B (a pKi value between 9 and 10 (Ki between 1 nM and 0.1 nM)) | A (a value of 3 or above) | C (a pIC50 value between 6 and 6.7 (IC50 between 1 μM and 200 nM)) |  |  |  |
| CN(C)C/C=C/C(=O)N1CCC(Nc2cc(-c3ccc(O)cc3)cc3[nH]ncc23)C(F)(F)C1 (centres unmarked) [Compound 7-5] |  |  | C (a value of 1.8 to 2.3) |  | 10 to 100 | 0.1 to 1 | 31.6 to 200 |
| C=CC(=O)N1CCC(Nc2cc(-c3ccc(O)cc3)cc3[nH]ncc23)C(F)(F)C1 (centres unmarked) [Compound 7-6] | D (a pKi value between 7 and 8 (Ki between 100 nM and 10 nM)) | A (a pKi value≥10 (Ki≤0.1 nM)) | B (a value of 2.3 to 3) | A (a pIC50 value≥7.5 (IC50≤32 nM)) |  |  |  |
| C=CC(=O)N1CCCC(Oc2cc(-c3ccc(O)cc3)nc3[nH]ncc23)C1 (centres unmarked) [Compound 8-6] | E (a pKi value of 7 or below (Ki of 100 nM or above)) | B (a pKi value between 9 and 10 (Ki between 1 nM and 0.1 nM)) | A (a value of 3 or above) | B (a pIC50 value between 6.7 (included) and 7.5 (IC50 between 200 nM and 32 nM)) |  |  |  |
| C=CC(=O)N1CCCC(Oc2cc(-c3ccc(O)c(F)c3)nc3[nH]ncc23)C1 (centres unmarked) [Compound 8-8] | E (a pKi value of 7 or below (Ki of 100 nM or above)) | A (a pKi value≥10 (Ki≤0.1 nM)) | A (a value of 3 or above) | B (a pIC50 value between 6.7 (included) and 7.5 (IC50 between 200 nM and 32 nM)) |  |  |  |
| CN(C)CC=CC(=O)N1CCCC(Oc2nc(-c3ccc(O)c(F)c3)cc3[nH]ncc23)C1 (centres unmarked) [Compound 8-9] | E (a pKi value of 7 or below (Ki of 100 nM or above)) | B (a pKi value between 9 and 10 (Ki between 1 nM and 0.1 nM)) | B (a value of 2.3 to 3) | C (a pIC50 value between 6 and 6.7 (IC50 between 1 μM and 200 nM)) |  |  |  |
| C=CC(=O)N1CCC[C@H](Oc2nc(-c3ccc(O)c(Cl)c3)cc3[nH]ncc23)C1 [Compound 8-10] | D (a pKi value between 7 and 8 (Ki between 100 nM and 10 nM)) | A (a pKi value≥10 (Ki≤0.1 nM)) | A (a value of 3 or above) | A (a pIC50 value≥7.5 (IC50≤32 nM)) |  |  |  |
| C=CC(=O)N1CCC[C@H](Oc2nc(-c3ccc(O)c(Cl)c3)nc3[nH]ncc23)C1 [Compound 8-12] | E (a pKi value of 7 or below (Ki of 100 nM or above)) | B (a pKi value between 9 and 10 (Ki between 1 nM and 0.1 nM)) | A (a value of 3 or above) | C (a pIC50 value between 6 and 6.7 (IC50 between 1 μM and 200 nM)) |  |  |  |
| C=CC(=O)N1CCC[C@H](Oc2nc(-c3ccc(O)c(F)c3)nc3[nH]ncc23)C1 [Compound 8-13] | E (a pKi value of 7 or below (Ki of 100 nM or above)) | B (a pKi value between 9 and 10 (Ki between 1 nM and 0.1 nM)) | A (a value of 3 or above) | C (a pIC50 value between 6 and 6.7 (IC50 between 1 μM and 200 nM)) |  |  |  |
